Data as given in patent publication US20220346372A1, “Compositions For Preparing Microemulsion, Microemulsion, Method For Producing Composition And Microemulsion, And Use Of Mircoemulsion” (Moresco Corporation, priority 2019, published 2022).

Experiment: LogP, flask shaking method (OECD guideline, n-octanol/water)
Assay type: physicochemical
Conditions: 1-octanol-water partition coefficient
Text: Here, LogP is a common logarithmic value of a 1-octanol-water or 1-octanol-buffer partition coefficient of a chemical substance. In the present specification, LogP is a value measured by a flask shaking method based on OECD GUIDELINE FOR THE TESTING OF CHEMICALS, “Partition Coefficient (n-octanol/water): Shake Flask Method”. A chemical substance having a higher LogP has a higher degree of lipophilicity. In other words, a chemical substance having a higher LogP has a higher degree of fat-solubility.

Compound	LogP of the poorly water-soluble functional component
Cc1c(C)c2c(c(C)c1O)CCC(C)(CCCC(C)CCCC(C)CCCC(C)C)O2 (racemic) [tocopherol, DL-α-Tocopherol]	8.84
COc1ccc2c(c1)c(CC(=O)O)c(C)n2C(=O)c1ccc(Cl)cc1 [indomethacin, Indomethacin]	4.25
Tocotrienol	7.68

Same assay, conditions: 1-octanol-water partition coefficient, read-out: LogP of the poorly water-soluble functional component

Compound	logP
CC1CCC(C(C)C)C(O)C1 (single isomer, unassigned; (-)) [menthol, (−)-Menthol]	2.68
COC1=C(OC)C(=O)C(C/C=C(\C)CC/C=C(\C)CC/C=C(\C)CC/C=C(\C)CC/C=C(\C)CC/C=C(\C)CC/C=C(\C)CC/C=C(\C)CC/C=C(\C)CCC=C(C)C)=C(C)C1=O [CoQ10, coenzyme Q10]	11
Clc1ccc(C(c2ccc(Cl)cc2)C(Cl)(Cl)Cl)cc1 [DDT, dichlorodiphenyltrichloroethane]	6.5
COc1cc(/C=C/C(=O)CC(=O)/C=C/c2ccc(O)c(OC)c2)ccc1O [curcumin, Curcumin]	3.62
COc1ccc2c(c1)c(CC(=O)O)c(C)n2C(=O)c1ccc(Cl)cc1 [indomethacin, Indomethacin]	4.25
CC(=O)O[C@H]1C(=O)[C@@]2(C)[C@H]([C@H](OC(=O)c3ccccc3)[C@]3(O)C[C@H](OC(=O)[C@H](O)[C@@H](NC(=O)c4ccccc4)c4ccccc4)C(C)=C1C3(C)C)[C@]1(OC(C)=O)CO[C@@H]1C[C@@H]2O [paclitaxel, Paclitaxel]	3.2
C[C@]12CC[C@H]3[C@@H](CCC4=CC(=O)CC[C@@]43C)[C@@H]1CC[C@@H]2O [testosterone, Testosterone]	2.99
